No end group written: not given here. C16 = N-terminal C16 lipid
Assays:
Type in all cases: cell-based
[1] = test system: human stromal progenitor cells; assay: Human stromal progenitor cell proliferation (Alamar Blue), lipopeptides as media supplement
Procedure: (§1) Cell proliferation can be evaluated via Alamar Blue assays, with cell number extrapolated from standard calibration curves using known number of cells for each experiment. Cells are incubated at 37° C. with resazurin reagent at 50 μM (Sigma Aldrich), prepared in 1:10 dilution using fresh culture medium, for […], after which 100 μl of culture supernatants (in triplicate) are sampled for fluorescence emission analysis at 590 nm using either a Fluoroskan Ascent fluorescent spectrophotometer or a Varioskan™ Lux (both from Thermo Scientific). The incubation time differ depending on the experiment and on the cell type. • 1.4 Collagen Deposit Assay
(§2) The effect of the different nanostructure on biocompatibility and bioactivity was investigated next. For this study, the lipopeptides were used as a media supplement, rather than coating. The bioactivity of the lipopeptides has been evaluated for three different cell types, namely human stromal progenitor cells, human adipose-derived mesenchymal stem cells (hASCs) and immortalized mouse myoblast cell line (C2C12). • 2.2.1 Effect on Human Stromal Progenitor Cells
(§3) The inventors hypothesised that the effect exerted by the same lipopeptide molecule can be different depending on the solvent in which the self-assembly is initiated. Lumican, Matrixyl and RGDS lipopeptides were investigated as supplements to culture media using stock solutions which were previously self-assembled either in water or in medium. Specifically, cells were cultured for 7 days and proliferation was assessed at day 3 and 7, whereas collagen deposition was analysed at day 7.

[2] = test system: immortalized mouse myoblast cell line (C2C12); assay: Collagen deposited by C2C12 (Sirius Red assay); conditions: 25 and 50 μM; day 7
Procedure: The amount of collagen deposited by the cells is investigated using the Sirius Red assay (Jimenez et al., 1985). In specific, cells are fixed in 70% ice-cold ethanol and transferred to −80° C. for at least 10 min to ensure the complete fixation of the material. Subsequently, the ethanol solution is removed and each well was gently washed with distilled water. Cells are treated with Sirius-red/picric acid solution (Sigma Aldrich) and incubated overnight at 4° C. with gentle agitation. The following day, any unbound dye is removed and cells were gently rinsed with distilled water. Cells are then treated with 500 μl of 1M NaOH (Fisher Scientific) at room temperature for 10 min under agitation to disperse the solution and 100 μL aliquots of each sample were then transferred in triplicate to a 96 well plate. The total collagen is calculated by comparing the absorbance of the resulting samples at 490 nm, read using either a Multiskan Ascent™ or a Varioskan™ Lux (both from Thermo Fisher Scientific), to that of known standard concentrations of collagen. […]
C2C12 were cultured up to 7 days in serum-free medium (SFM) supplemented either with Lumican or Matrixyl or RGDS lipopeptides. […] C2C12 proliferation was evaluated using Alamar Blue assay at day 3 and 7. The amount of deposited collagen was quantified using the Sirius Red assay at day 7.

[3] = test system: human adipose-derived mesenchymal stem cells (hASCs); assay: hASC proliferation (Alamar Blue); conditions: 50 μM; day 3 and 7; not significant
Procedure: as §1
The hASCs were also cultured with RGDS lipopeptide previously solubilised above its c.a.c. in water and then diluted in SFM at the final concentration of 50 μM (FIG. 4). This was to understand if the different self-assembled structures affected hASCs behaviour as found for human stromal progenitor cell.
(§4) Moreover, hASCs were also cultured with Lumican or Matrixyl lipopeptides previously solubilised above their c.a.c. in water and then diluted in SFM at the final concentration of 50 μM (FIG. 5).

[4] = test system: human adipose-derived mesenchymal stem cells (hASCs); assay: Collagen deposited by hASCs (Sirius Red assay); conditions: 7 days in culture, not significant
Procedure: (§5) The amount of collagen deposited by the cells is investigated using the Sirius Red assay (Jimenez et al., 1985). In specific, cells are fixed in 70% ice-cold ethanol and transferred to −80° C. for at least 10 min to ensure the complete fixation of the material. Subsequently, the ethanol solution is removed and each well was gently washed with distilled water. Cells are treated with Sirius-red/picric acid solution (Sigma Aldrich) and incubated overnight at 4° C. with gentle agitation. The following day, any unbound dye is removed and cells were gently rinsed with distilled water. Cells are then treated with 500 μl of 1M NaOH (Fisher Scientific) at room temperature for 10 min under agitation to disperse the solution and 100 μL aliquots of each sample were then transferred in triplicate to a 96 well plate. The total collagen is calculated by comparing the absorbance of the resulting samples at 490 nm, read using either a Multiskan Ascent™ or a Varioskan™ Lux (both from Thermo Fisher Scientific), to that of known standard concentrations of collagen. Each tested condition is performed in triplicate. • 1.5 Atomic Force Microscopy (AFM)
as §4

[5] = test system: human stromal progenitor cells; assay: Collagen deposited by human stromal progenitor cells (Sirius Red assay); conditions: for amount of collagen deposited, higher compared to PA self-assembled in medium: self-assembled in water
Procedure: as §5, §2, §3

[6] = test system: immortalized mouse myoblast cell line (C2C12); assay: C2C12 proliferation (Alamar Blue); conditions: solubilised in medium; 25 and 50 μM; since day 3
Procedure: as §1
C2C12 were cultured up to 7 days in serum-free medium (SFM) supplemented either with Lumican or Matrixyl or RGDS lipopeptides. Each lipopeptide stock was prepared above its c.a.c. either in serum-free medium (SFM) or in water (H2O). C2C12 proliferation was evaluated using Alamar Blue assay at day 3 and 7. The amount of deposited collagen was quantified using the Sirius Red assay at day 7.

| Substance | cell viability compared to the control ([1]; self-assembled in SFM, day 7, both conditions) | collagen deposited when solubilised in SFM rather than water [2] | cell proliferation when solubilised in medium rather than water [3] | collagen deposited by hASCs ([4]; solubilised in SFM) | amount of deposited collagen compared to the control ([5]; self-assembled in SFM, day 7) | amount of deposited collagen, higher compared to lipopeptide self-assembled in water ([5]; self-assembled in SFM, day 7) [%] | cell proliferation [6] | cell proliferation compared to non-supplemented SFM ([1]; self-assembled in medium, 12 and 25 μM) | cell proliferation compared to non-supplemented serum free medium (SFM) ([1]; self-assembled in water, supplemented at 25 μM and 12 μM, day 3 and 7) | collagen deposited by hASCs ([4]; solubilised in water) | collagen deposition compared to the control (SFM) ([5]; independently of the solvent (water or medium) of self-assembly, 7 days) | amount of collagen deposited, higher compared to PA self-assembled in medium ([5]; 12 μM, 7 days) [%] | amount of collagen deposited, higher compared to PA self-assembled in medium ([5]; 25 μM, 7 days) |
| --- | --- | --- | --- | --- | --- | --- | --- | --- | --- | --- | --- | --- | --- |
| C16-KTTKS [Matrixyl lipopeptide] | dramatically decreased cell viability | significantly increased | slightly increase cell proliferation | slightly increased the collagen deposited | significantly increased the amount of deposited collagen | 55 | significantly increased | – | – | – | – | – | – |
| C16-YEALRVANEVTLN [Lumican lipopeptide] | – | significantly increased | slightly increase cell proliferation | – | – | – | significantly increased cell proliferation | slightly increased cell proliferation only up to day 3 | significantly increased cell proliferation | slightly increased the collagen deposited | significantly increased collagen deposition | 15 | ≈ 75% |

From patent US20220296774A1, “SUPRAMOLECULAR STRUCTURES” (Cellularevolution Limited, priority 2019, published 2022)
